Columns and labels:
Type in all cases: in vivo, human
[1] = tested on: fatty acid desaturation index (FADI), plasma; experiment: Fatty acid desaturation index (FADI) ratios in plasma, 12-week placebo-controlled study; settings: 4 g/day, 12 weeks, placebo-adjusted, from baseline
Experimental: (§1) A multi-center, placebo-controlled, randomized, double-blind, 12-week study was performed to evaluate the efficacy and safety of >96% E-EPA in patients with fasting triglyceride levels ≥200 mg/dl and <500 mg/dl despite statin therapy (the mean of two qualifying entry values needed to be ≥185 mg/dl and at least one of the values needed to be ≥200 mg/dl). The primary objective of the study was to determine the efficacy of >96% E-EPA 2 g daily and 4 g daily, compared to placebo, in lowering fasting TG levels in patients with high risk for cardiovascular disease and with fasting TG levels ≥200 mg/dl and <500 mg/dl, despite treatment to LDL-C goal on statin therapy.
(§2) The population for this study was men and women >18 years of age with a body mass index ≤45 kg/m^2 with fasting TG levels greater than or equal to 200 mg/dl and less than 500 mg/dl and on a stable does of statin therapy (with or without ezetimibe). The statin was atorvostatin, rosuvastatin or simvastatin. The dose of statin must have been stable for ≥4 weeks prior to the LDL-C/TG baseline qualifying measurement for randomization. The statin dose was optimized such that the patients are at their LDL-C goal at the LDL-C/TG baseline qualifying measurements. The same statin at the same dose was continued until the study ended. […]
(§3) The primary efficacy variable for the double-blind treatment period was percent change in TG from baseline to Week 12 endpoint. The secondary efficacy variables for the double-blind treatment period included the following: • Percent changes in total cholesterol (TC), high-density lipoprotein cholesterol (HDL-C), LDL-C, calculated non-HDL-C, and very low-density lipoprotein cholesterol (VLDL-C) from baseline to Week 12 endpoint; • Percent change in very low-density lipoprotein TG from baseline to Week 12; • Percent changes in apolipoprotein A-I (apo A-I), apolipoprotein B (apo B), and apo A-I/apo B ratio from baseline to Week 12; • Percent changes in lipoprotein(a) from baseline to Week 12; • Percent changes in LDL particle number and size, measured by nuclear magnetic resonance, from baseline to Week 12; • Percent change in remnant-like particle cholesterol from baseline to Week 12; • Percent change in oxidized LDL from baseline to Week 12; • Changes in FPG and HbA1c from baseline to Week 12; • Change in insulin resistance, as assessed by the homeostasis model index insulin resistance, from baseline to Week 12; • Percent change in lipoprotein associated phospholipase A2 (Lp-PLA2) from baseline to Week 12; • Change in intracellular adhesion molecule-1 from baseline to Week 12; • Change in interleukin-2 from baseline to Week 12; • Change in plasminogen activator inhibitor-1 from baseline to Week 12. […]

[2] = tested on: fatty acid desaturation index (FADI), RBCs; experiment: Fatty acid desaturation index (FADI) ratios in red blood cells, 12-week placebo-controlled study; settings: 4 g/day, 12 weeks, placebo-adjusted, from baseline
Experimental: as §1, §2, §3

[3] = tested on: Lipoprotein Particle Sizes; experiment: Lipoprotein particle sizes, 12-week double-blind placebo-controlled study of >96% E-EPA in statin-treated patients; settings: 12 weeks; for LDL particle size, % Δ / HDL particle size, % Δ / VLDL particle size, % Δ: median change from baseline; for LDL particle size, End / HDL particle size, End / VLDL particle size, End: median
Experimental: as §1
The population for this study was men and women >18 years of age with a body mass index ≤45 kg/m^2 with fasting TG levels greater than or equal to 200 mg/dl and less than 500 mg/dl and on a stable does of statin therapy (with or without ezetimibe). The statin was atorvostatin, rosuvastatin or simvastatin. The dose of statin must have been stable for ≥4 weeks prior to the LDL-C/TG baseline qualifying measurement for randomization. The statin dose was optimized such that the patients are at their LDL-C goal at the LDL-C/TG baseline qualifying measurements. The same statin at the same dose was continued until the study ended.
Approximately 702 patients were randomized at approximately 80 centers in the U.S. The study was a 18- to 20-week, Phase 3, multi-center study consisting of 2 study periods: (1) A 6- to 8-week screening period that included a diet and lifestyle stabilization, a non-statin lipid-altering treatment washout, and an LDL-C and TG qualifying period and (2) A 12-week, double-blind, randomized, placebo-controlled treatment period.
After confirmation of qualifying fasting LDL-C and TG values, eligible patients entered a 12-week, randomized, double-blind treatment period. At Visit 4 (Week 0), patients were randomly assigned to 1 of the following treatment groups: • >96% E-EPA 2 g daily, • >96% E-EPA 4 g daily, or • Placebo.
During the double-blind treatment period, patients were to take 2 capsules (>96% E-EPA or matching placebo) in the morning and 2 capsules in the evening for a total of 4 capsules per day. • Patients in the >96% E-EPA 2 g/day treatment group received 1>96% E-EPA 1 g capsule and 1 matching placebo capsule in the morning and in the evening. • Patients in the >96% E-EPA 4 g/day treatment group received 2>96% E-EPA 1 g capsules in the morning and evening.
as §3

[4] = listed as Ethyl Eicosapentaenoate
[5] = 4 g/day, Hodges-Lehmann median, listed as E-EPA

Structure (SMILES): CC/C=C\C/C=C\C/C=C\C/C=C\C/C=C\CCCC(=O)OCC [ethyl eicosapentaenoate, all-cis eicosa-5,8,11,14,17-pentaenoic acid ethyl ester]
- FADI-16 (Palmitoleic acid/Palmitic acid, C16:1/C16:0) % Change, Plasma [1]: significantly reduced
- FADI-18 (Oleic acid/Stearic Acid, C18:1/C18:0) % Change, Plasma [1]: significantly reduced
- FADI-16 (Palmitoleic acid/Palmitic acid, C16:1/C16:0) % Change, Plasma [1, 4]: −6.8%
- FADI-18 (Oleic acid/Stearic Acid, C18:1/C18:0) % Change, Plasma [1, 4]: −9.8%
- FADI-16 (Palmitoleic acid/Palmitic acid, C16:1/C16:0) % Change, RBCs [2]: significantly reduced
- FADI-18 (Oleic acid/Stearic Acid, C18:1/C18:0) % Change, RBCs [2]: significantly reduced
- FADI-16 (Palmitoleic acid/Palmitic acid, C16:1/C16:0) % Change, RBCs [2, 4]: −15.7%
- FADI-18 (Oleic acid/Stearic Acid, C18:1/C18:0) % Change, RBCs [2, 4]: −3.1%
- HDL particle size, Placebo-Adjusted Median Change from Baseline 2 g/d, % ([3]; 2 g/day, Hodges-Lehmann median): 0.0%
- LDL particle size, Placebo-Adjusted Median Change from Baseline 2 g/d, % ([3]; 2 g/day, Hodges-Lehmann median): +0.5%
- VLDL particle size, Placebo-Adjusted Median Change from Baseline 2 g/d, % ([3]; 2 g/day, Hodges-Lehmann median): −4.8%
- LDL particle size, % Δ ([3]; 2 g/day, n = 221): +0.5%
- HDL particle size, % Δ ([3]; 2 g/day, n = 222): 0.0%
- VLDL particle size, % Δ ([3]; 2 g/day, n = 222): −5.0%
- LDL particle size, End ([3]; 2 g/day, n = 221): 20.0 nm
- HDL particle size, End ([3]; 2 g/day, n = 222): 8.6 nm
- VLDL particle size, End ([3]; 2 g/day, n = 222): 53.2 nm
- HDL particle size, Placebo-Adjusted Median Change from Baseline 4 g/d, % ([3]; 4 g/day, Hodges-Lehmann median): significantly reduced
- LDL particle size, Placebo-Adjusted Median Change from Baseline 4 g/d, % ([3]; 4 g/day, Hodges-Lehmann median): modest but significant increase
- VLDL particle size, Placebo-Adjusted Median Change from Baseline 4 g/d, % ([3]; 4 g/day, Hodges-Lehmann median): significantly reduced
- HDL particle size, Placebo-Adjusted Median Change from Baseline 4 g/d, % [3, 5]: −1.2%
- LDL particle size, Placebo-Adjusted Median Change from Baseline 4 g/d, % [3, 5]: +0.5%
- VLDL particle size, Placebo-Adjusted Median Change from Baseline 4 g/d, % [3, 5]: −7.7%
- LDL particle size, % Δ ([3]; 4 g/day, n = 215): +0.5%
- HDL particle size, % Δ ([3]; 4 g/day, n = 216): −1.1%
- VLDL particle size, % Δ ([3]; 4 g/day, n = 216): −8.1%
- LDL particle size, End ([3]; 4 g/day, n = 215): 20.0 nm
- HDL particle size, End ([3]; 4 g/day, n = 216): 8.6 nm
- VLDL particle size, End ([3]; 4 g/day, n = 216): 51.2 nm
